# Experimental data as given in publication PMC10718076, “1,2-Disubstituted bicyclo[2.1.1]hexanes as saturated bioisosteres of ortho-substituted benzene” (Chemical Science, 2023).
# Read-outs that look alike come from different tables or passages of the source.
# Tests used:
# [1] = Kinetic solubility in phosphate-buffered saline, pH 7.4; type: physicochemical; details: 25 °C, kinetic from dmso stock, phosphate-buffered saline; for solubility kinetic at 2 h: aqueous buffer, pH 7.4, read-out: Sol.: experimental kinetic solubility; for solubility at 2 h: pH 7.4, aqueous buffer
# Protocol: Analysis of Aqueous Solubility […]
# compound (Ondansetron) were assessed for kinetic solubility in phosphate -buffered saline, pH 7.4.
# Phosphate buffered saline, pH 7.4 (Sigma -Aldrich, USA; Cat #P3813) […]
# MultiScreen HTS 96 Well Filter Plates (Millipore, Ireland; Cat # MSSLBPC10) […]
# Matrix Multichannel Electronic Pipette 2-125 μL, 5-250 μL, 15-1250 μL (Thermo Scientific, USA; […]
# Vacuum pump (Millipore, USA; Model # XX5500000)
# The measurements were performed using SpectraMax Plus reader in UV -Vis mode. Acquisition and […]
# The measurements were performed using SpectraMax Paradigm reader in UV-Vis mode.
# Acquisition and analysis of the data were performed using SoftMax Pro v.5.4 (Molecular Devices) […]
# Kinetic solubility assay was performed according to the Enamine’s aqueous solubility SOP. Briefly, using a 20 mM stock solution of the compound in 100% DMSO dilutions were prepared to a theoretical concentration of 400 μM in duplicates in phosphate-buffered saline pH 7.4 […]
# compound dilutions in PBS were further allowed to equilibrate at 25 °C on a thermostatic shaker for two hours and then filtered through HTS filter plates using a vacuum manifold. The filtrates of test compounds were diluted 2-fold with acetonitrile with 2% DMSO before measuring.
# In parallel, compound dilutions in 50% acetonitrile/PBS were prepared to theoretical concentrations […]
# calibration curves. Ondansetron was used as reference compound to control proper assay performance. 200 μl of each sample was transferred to 96-well plate and measured in 230-550 nm range with 5 nm step. The effective range of this assay is approximately 2-400 μM and the […]
# The concentrations of compounds in PBS filtrate are calculated using a dedicated Microsoft Excel calculation script. Proper absorbance wavelengths for calculations are selected for each compound manually based on absorbance maximums (absolute absorbance unit values for the minimum and maximum concentration points within the 0 – 3 OD range). Each final dataset is visually evaluated by the operator, and goodness of fit (R2) is calculated for each calibration curve. […]
# samples were diluted 2-fold with acetonitrile containing internal standard and were analyzed using the HPLC system coupled with a tandem mass spectrometer. The effective range of this assay is […]
# physchem = details: pH 7.4, LogD, pH 7.4
# Protocol: Determination of Distribution Coefficient (LogD, pH 7.4)
# coefficient (or LogD) is a logarithm of the ratio of drug concentrations in two immiscible solvents,
# typically pH-buffered water and n-octanol. It is a measure of hydrophobic/hydrophilic properties of
# a given molecule. The partition of test compounds is determined using a shake-flask method, which
# involves mixing of a certain amount of the solute of interest in defined volumes of n-octanol and an
# aqueous buffer of choice followed by equilibration of the mixture by incubation with efficient
# mixing. Then, the distribution of the compounds in each solvent was controlled using LC-MS/MS.
# Phosphate buffered saline, tablet (Sigma-Aldrich, USA; Cat # P4417)
# Acetic acid (Enamine, Ukraine)
# 1.1 mL microtubes in microracks, pipettor tips (Thermo Scientific, USA).
# National Scientific MicroTube™ Rack (Thermo Fisher Scientific, USA; Cat # TN094612R)
# Gradient HPLC system (Shimadzu, Japan)
# Triple quadrapole mass-detector API 3000 with TurboIonSpray Ion Source (AB Sciex, Canada)
# MTR22 Multi Mix Rotator (UNICO, USA)
# Laboratory Centrifuge, Sigma 4-15C, Qiagen (SIGMA GmbH, Germany)
# Water purification system Millipore Milli-Q Gradient A10 (Millipore, France)
# All measurements were performed using a Shimadzu Prominence HPLC system including a
# vacuum degasser, gradient pumps, a reverse phase column, a column oven and an autosampler.
# Mass spectrometric analysis was performed using an API 4000 QTRAP mass spectrometer from
# Applied Biosystems/MDS Sciex (AB Sciex) with Turbo V ion source and TurboIonspray
# interface. The TurboIonSpray ion source was used in both positive and negative ion modes.
# Acquisition and analysis of the data were performed using Analyst 1.6.3 software.
# Incubations were carried out in Eppendorf-type polypropylene microtubes in triplicates. A 2.5 μL
# aliquot of 20 mM DMSO stock of a test compound was added into the previously mutually
# saturated mixture containing 500 μL of PBS (pH 7.4) and 500 μL of octanol. The solution was
# allowed to mix in a rotator for 1 hour at 30 rpm. Phase separation was assured by centrifugation for
# 2 min at 6000 rpm. The octanol phase was diluted 100-fold with 40% acetonitrile, and the aqueous
# phase (PBS buffer) was diluted 10-fold with 40% acetonitrile. The samples (both phases) were
# analyzed using an HPLC system coupled with a tandem mass spectrometer.
# Calculations of the partition ratios were carried out using the equation below.
# where: – peak area of the analyte in octanol phase
# – peak area of the analyte in PBS buffer
# – dilution coefficient for octanol phase dp – dilution coefficient for aqueous phase
# [2] = Metabolic stability in human liver microsomes; details: both; for microsomal CLint at 2 μM / microsomal CLint at 2 µM: pH 7.4; for remaining at 40 min, 2 µM: Mean of 2, 40 min; for remaining at 25 min, 2 µM: Mean of 2, 25 min
# [3] = Table S5, injection 1, octanol/PBS pH 7.4
# [4] = Table S5, injection 2, octanol/PBS pH 7.4
# [5] = Table S5, injection 3, octanol/PBS pH 7.4
# [6] = human liver microsomes (pooled)
# [7] = human liver microsomes (pooled), pH 7.4, % Remaining, Table S9, 4st batch
# [8] = Table S2, 2st batch, read-out: PBS solubility, pH 7.4, Incubation 1
# [9] = Table S2, 2st batch, read-out: PBS solubility, pH 7.4, Incubation 2
# [10] = Table S2, 2st batch, read-out: PBS solubility, pH 7.4, Mean
# [11] = liver microsomes (pooled), pH 7.4, % Remaining without cofactor, no NADPH cofactor, Table S6, 1st batch
# [12] = liver microsomes (pooled), pH 7.4, % Remaining, Mean of 2, 7 min, Table S6, 1st batch
# [13] = liver microsomes (pooled), pH 7.4, % Remaining, Mean of 2, 15 min, Table S6, 1st batch
# [14] = liver microsomes (pooled), pH 7.4, % Remaining, Table S6, 1st batch
# [15] = liver microsomes (pooled), pH 7.4, kel, Table S6, 1st batch
# [16] = liver microsomes (pooled), pH 7.4, t1/2, Table S6, 1st batch
Compound,solubility kinetic at 2 h [1],D [3],D [4],D [5],logD at 1 h (physchem),"microsomal CLint at 2 μM [2, 6]","solubility at 2 h [1, 8]","solubility at 2 h [1, 9]","solubility at 2 h [1, 10]","remaining at 40 min, 2 µM [2, 11]","remaining at […], 2 µM [2, 12]","remaining at […], 2 µM [2, 13]","remaining at 25 min, 2 µM [2, 14]","remaining at 40 min, 2 µM [2, 14]","k el at 2 µM [2, 15]","half-life at 2 µM [2, 16]",microsomal CLint at 2 µM ([2]; liver microsomes (pooled)),further results
"Cn1cc(C(=O)Nc2ccc(F)cc2-c2ccc(Cl)c(Cl)c2)c(C(F)F)n1 [Bixafen, bixafen]",30 µM,1.23E+04,1.53E+04,2.30E+04,4.09,~10 µL/min/mg,,,,,,,,,,,,"solubility at 2 h ([1]; Table S4, 4nd batch, read-out: PBS solubility, pH 7.4, Incubation 1): 29 µM; solubility at 2 h ([1]; Table S4, 4nd batch, read-out: PBS solubility, pH 7.4, Incubation 2): 31 µM; solubility at 2 h ([1]; Table S4, 4nd batch, read-out: PBS solubility, pH 7.4, Mean): 30 µM; remaining at 40 min, 2 µM ([2]; human liver microsomes (pooled), pH 7.4, % Remaining without cofactor, no NADPH cofactor, Table S9, 4st batch): 101%; remaining at […], 2 µM ([2]; human liver microsomes (pooled), pH 7.4, % Remaining, Mean of 2, 7 min, Table S9, 4st batch): 105%; remaining at […], 2 µM ([2]; human liver microsomes (pooled), pH 7.4, % Remaining, Mean of 2, 15 min, Table S9, 4st batch): 97%; remaining at 25 min, 2 µM [2, 7]: 93%; remaining at 40 min, 2 µM [2, 7]: 87%; k el at 2 μM ([2]; human liver microsomes (pooled), pH 7.4, kel, Table S9, 4st batch, * approximate due to high stability): ~6.67e-05 s⁻¹; half-life at 2 µM ([2]; human liver microsomes (pooled), pH 7.4, t1/2, Table S9, 4st batch, * approximate due to high stability): ~161 min"
O=C(NC1CC2CC1(c1ccc(Cl)cc1)C2)c1cccnc1Cl (stereo not shown) [Compound 28],35 µM,3.84E+03,3.81E+03,3.49E+03,3.58,29 µL/min/mg,35 µM,34 µM,35 µM,116%,88%,82%,72%,61%,0.0002 s⁻¹,57.6 min,,
Cn1cc(C(=O)NC2CC3CC2(c2ccc(Cl)c(Cl)c2)C3)c(C(F)F)n1 (stereo not shown) [Compound 29],4 µM,1.26E+04,1.38E+04,1.92E+04,4.1,,4 µM,4 µM,4 µM,106%,83%,73%,67%,54%,0.00025 s⁻¹,47.4 min,35 µL/min/mg,
Cn1cc(C(=O)NC2CC3CC2(c2cc(F)c(F)c(F)c2)C3)c(C(F)F)n1 (stereo not shown) [Compound 30],27 µM,4.08E+03,4.11E+03,4.44E+03,3.61,,25 µM,28 µM,27 µM,109%,70%,53%,43%,35%,0.000417 s⁻¹,27.3 min,61 µL/min/mg,
